{"source": "paper PMC11208559", "about": "(Scientific Reports, 2024)", "key": {"in vitro [1]": {"experiment": "in vitro", "format": "in vitro ADME, CD-1 mice", "settings": "male, CD-1, mouse, microsomes", "procedure": "(§1) Metabolic stability of lead compounds was assessed in vitro by the method of Di et al.[32]. Briefly, mouse liver microsomes (Corning Life Sciences, Woburn, MA) were isolated from CD-1 mice (male mice, 8 − 10 weeks of age). Assays were conducted using 0.123 mg/mL protein concentration (total protein concentration in the microsomal solution) and 1.0 μM drug concentration under incubation conditions of 37 °C. Metabolic stability was determined following 0, 5, 15, 30, and 60 min of incubation time. The samples were analyzed by reversed phase LC using a triple quadrupole mass spectrometer. Compound specific transitions of parent ion to product ion were monitored and percent remaining calculated based on peak area of 5 − 60 min time points (relative to time zero). Half-life calculations were determined using the formula t½ = − ln(2)/k, where k (min^−1) is the turnover rate constant (the slope) estimated from a log − linear regression of the percentage compound remaining versus time.\nLC − MS/MS analysis was conducted using an Agilent (Santa Clara, CA) 6460 triple quadrupole mass spectrometer coupled with an Agilent liquid chromatography (LC) system. The LC system consists of a binary pump, degasser, column heater, and autosampler. […]"}, "human mu opioid receptor": {"target": "T1, human mu opioid receptor (Homo sapiens, UniProt P35372)", "T1 construct": "membrane protein", "format": "binding", "settings": "up to a 10 μM concentration"}, "CD-1 mice [2]": {"test_system": "CD-1 mice", "experiment": "Morphine anti-nociceptive tolerance and tolerance rescue (tail flick)", "format": "in vivo", "settings": "tail flick", "procedure": "(§2) Pre-injection tail-flick baselines were determined in a 52 °C tail-flick assay with a 10-s cutoff time (method also reported in Ref.[13]). […] No animals were excluded from these studies."}, "in vivo": {"experiment": "in vivo", "settings": "CD-1, mouse, iv"}, "CD-1 mice [3]": {"test_system": "CD-1 mice", "settings": "mouse, in vivo"}, "physchem [4]": {"experiment": "physchem", "format": "physicochemical", "procedure": "Distribution coefficient (LogD) was determined by the method of Wilson et al.[30]. Briefly, 5 µL volumes of test compounds diluted in DMSO were added to a mixture of equal volumes of 50 mM phosphate buffer and 1-octanol. The compounds were assayed using a 50 nM concentration in order to limit compound precipitation and to ensure that the assay values were maintained within the dynamic range of the LC–MS/MS instrumentation. Samples were vortex mixed at 800 rpm for 24 h. Subsequent to centrifugation at 14,000 rpm for 30 min, 1 µL of each layer was analyzed by LC–MS/MS. LogD was calculated using the peak areas obtained from each layer.\nLC − MS/MS analysis was conducted using an Agilent (Santa Clara, CA) 6460 triple quadrupole mass spectrometer coupled with an Agilent liquid chromatography (LC) system. The LC system consists of a binary pump, degasser, column heater, and autosampler. Chromatographic separation was performed on a Waters Atlantis T3 3 µm 3.0 × 50 mm analytical column using a ballistic gradient of mobile phase consisting of 0.1% formic acid in water (A) and 0.1% formic acid in acetonitrile (B) at a flow rate of 0.75 mL/min. The mobile phase was heated to a temperature of 45 °C."}, "CD-1 mice [5]": {"test_system": "CD-1 mice", "experiment": "52 °C tail-flick assay, morphine anti-nociception after Hsp90 inhibitor treatment", "format": "in vivo", "procedure": "as §2"}, "in vitro [6]": {"experiment": "in vitro", "format": "in vitro ADME", "settings": "male, human, microsomes", "procedure": "as §1\nMetabolic stability of the compounds in human liver microsomes was determined by the method described above using pooled human liver microsome preparations from 20 male donors (Corning Life Sciences, Woburn, MA). Assays were conducted as described above and the in vitro half-life of the compounds was calculated. […]"}, "[7]": {"target": "T2, human delta opioid receptor (Homo sapiens, UniProt P41143)", "T2 construct": "membrane protein", "experiment": "Competition radioligand binding vs 3H-diprenorphine, delta opioid receptor", "settings": "up to a 10 μM concentration"}, "physchem [8]": {"experiment": "physchem", "settings": "pH 6.8, aqueous buffer, thermodynamic from solid"}, "CD-1 mice [9]": {"test_system": "CD-1 mice", "experiment": "Post-surgical paw incision, mechanical allodynia (von Frey), morphine anti-nociception", "format": "in vivo", "procedure": "Mechanical thresholds were determined prior to surgery using calibrated von Frey filaments (Ugo Basile, Varese, Italy) with the up-down method and four measurements after the first response per mouse as in Ref.[27] and our previously published work (e.g. Ref.[28]). The mice were housed in a homemade apparatus with Plexiglas walls and ceiling and a wire mesh floor (3-inch wide 4-inch long 3-inch high with 0.25-inch wire mesh). The surgery was then performed by anesthesia with ~ 2% isoflurane in standard air, preparation of the left plantar hind paw with iodine and 70% ethanol, and a 5-mm incision made through the skin and fascia with a no. 11 scalpel. The muscle was elevated with curved forceps leaving the origin and insertion intact, and the muscle was split lengthwise using the scalpel. The wound was then closed with 5–0 polyglycolic acid sutures. Mice were then injected with inhibitor or Vehicle control and left to recover for 24 h. Our intrathecal (i.t.) injection protocol is reported in Refs.[13],[29]; briefly, the injection was made in awake and restrained animals with a 10 μL Hamilton syringe and 30 g needle (5–7 μL volume) between the L5-L6 vertebrae at a 45° angle, with placement validated by tail twitch. Since the injection was made through skin with no incision or other surgical intervention, repeated injection protocols were performed the same way. The next day, the mechanical threshold was again determined as described above. […] . No animals were excluded from these studies."}, "[10]": {"settings": "1 and 10 mg/kg i.v."}, "[11]": {"target": "T3, human kappa opioid receptor (Homo sapiens, UniProt P41145)", "T3 construct": "membrane protein", "experiment": "Competition radioligand binding vs 3H-diprenorphine, kappa opioid receptor", "settings": "up to a 10 μM concentration"}, "CD-1 mice [12]": {"test_system": "CD-1 mice", "experiment": "Opioid induced constipation (fecal production over 6 h)"}, "CD-1 mice [13]": {"test_system": "CD-1 mice", "experiment": "Conditioned place preference (morphine reward)", "settings": "Vehicle i.t. over 4 days with 3.2–10 mg/kg morphine s.c.; 95% CI in parentheses"}, "CD-1 mice [14]": {"test_system": "CD-1 mice", "experiment": "HIV peripheral neuropathy (gp120), mechanical threshold, morphine anti-nociception", "format": "in vivo", "settings": "Vehicle i.t. on day 20, 24 h, then morphine s.c.; %MPE; 95% CI in parentheses", "procedure": "Mechanical threshold baselines were measured prior to any treatment on the left hind paw using von Frey filaments. HIV peripheral neuropathy was induced by intrathecal injection of gp120 IIIb protein (SPEED BioSystems, Gaithersburg, MD, Cat# YCP1549, 15 ng/μl in 0.1 M PBS and 0.1% BSA, 7-μl volume) using our previously established protocol[13] on days 1, 3, and 5. On day 20 a second mechanical threshold baseline was measured on the left hind paw using von Frey filaments and then KU-32 or Vehicle was injected i.t with a 24-h treatment time. […] . No animals were excluded from these studies."}, "[15]": {"settings": "daily Vehicle i.t., twice daily 1–10 mg/kg morphine s.c., 95% CI in parentheses"}}, "note": "Where a name gives a salt, the structure may show the parent alone."}
{"smiles": "COC(=O)c1c(O)cc(O)c(Cl)c1CCc1ccccc1Cc1ccc(F)cc1", "note": "[KUNG65]", "values": [{"measurement": "half-life at 1 µM", "setting": "in vitro [1]", "result": 32, "unit": "min"}, {"measurement": "binding to mu opioid receptor (competition vs 3H-diprenorphine)", "setting": "human mu opioid receptor", "result": "no binding"}, {"measurement": "rescue of established morphine tolerance, systemic inhibitor", "setting": "CD-1 mice [2]; 3 days twice daily 10 mg/kg morphine s.c., 1 mg/kg i.v. on day 3, 24 h, 10 mg/kg morphine s.c.", "result": "rescued established tolerance"}, {"measurement": "AUC(0-inf)", "setting": "in vivo; 1 mg/kg", "result": 0.245, "unit": "µM·h"}, {"measurement": "Cmax", "setting": "in vivo; 1 mg/kg", "result": 418, "unit": "nM"}, {"measurement": "Tmax", "setting": "in vivo; 1 mg/kg", "result": 4.98, "unit": "min"}, {"measurement": "half-life", "setting": "in vivo; 1 mg/kg", "result": 36, "unit": "min"}, {"measurement": "AUC(0-inf)", "setting": "in vivo; 10 mg/kg", "result": 0.46, "unit": "µM·h"}, {"measurement": "Cmax", "setting": "in vivo; 10 mg/kg", "result": 1070, "unit": "nM"}, {"measurement": "Tmax", "setting": "in vivo; 10 mg/kg", "result": 4.98, "unit": "min"}, {"measurement": "half-life", "setting": "in vivo; 10 mg/kg", "result": 38.4, "unit": "min"}, {"measurement": "effect on respiratory activity before and after morphine", "setting": "CD-1 mice [3]", "result": "no effect on respiration before or after morphine injection"}, {"measurement": "logD at 24 h", "setting": "physchem [4]", "result": 3.3}, {"measurement": "naloxone reversibility of inhibitor-enhanced morphine pain relief", "setting": "CD-1 mice [5]; 1 mg/kg i.v., 24 h, 2 mg/kg naloxone i.p. 10 min, 3.2 mg/kg morphine s.c., tail flick", "result": "fully naloxone-reversible"}, {"measurement": "effect on morphine tail flick anti-nociception 48 h after treatment", "setting": "CD-1 mice [5]; 1 mg/kg i.v., 48 h, then 3.2 mg/kg morphine s.c.", "result": "no effect"}, {"measurement": "A50 (morphine anti-nociceptive potency), tail flick, systemic inhibitor", "setting": "CD-1 mice [5]; 1 mg/kg inhibitor i.v., 24 h, then 1–5.6 mg/kg morphine s.c., peak %MPE, 95% CI in parentheses", "result": "1.9 (1.4–2.3) mg/kg"}, {"measurement": "effect of higher 10 mg/kg dose on morphine pain relief (tail flick)", "setting": "CD-1 mice [5]; 10 mg/kg i.v. vs 1 mg/kg i.v., 24 h, then 3.2 mg/kg morphine s.c.", "result": "elevated morphine pain relief, it did so less than a 1 mg/kg dose"}, {"measurement": "effect of spinal cord Grp94 CRISPR knockdown on benefit of systemic inhibitor", "setting": "CD-1 mice [5]; Grp94 CRISPR i.t., 1 mg/kg i.v. on day 9, 24 h, 3.2 mg/kg morphine s.c., tail flick", "result": "abolished the benefit"}, {"measurement": "half-life at 1 µM", "setting": "in vitro [6]", "result": 144, "unit": "min"}, {"measurement": "binding to delta opioid receptor (competition vs 3H-diprenorphine)", "setting": "[7]", "result": "no binding"}, {"measurement": "solubility at 24 h", "setting": "physchem [8]", "result": 0.074, "unit": "µM"}, {"measurement": "A50 (morphine anti-nociceptive potency), paw incision, systemic inhibitor", "setting": "CD-1 mice [9]; 1 mg/kg inhibitor i.v., 24 h, then 1–3.2 mg/kg morphine s.c., peak %MPE, 95% CI in parentheses", "result": "0.9 (0.5–1.2) mg/kg"}, {"measurement": "exposure in the spinal cord", "setting": "[10]", "result": "very low exposure"}, {"measurement": "binding to kappa opioid receptor (competition vs 3H-diprenorphine)", "setting": "[11]", "result": "no binding"}]}
{"smiles": "CN1CC[C@]23c4c5ccc(O)c4O[C@H]2[C@@H](O)C=C[C@H]3[C@H]1C5", "note": "[morphine, Morphine sulfate pentahydrate, reference compound]", "values": [{"measurement": "A50 of morphine, Day 1 of tolerance regimen", "setting": "CD-1 mice [2]; [15]", "result": "5.2 (3.9–7.5) mg/kg"}, {"measurement": "A50 of morphine, Day 4 of tolerance regimen", "setting": "CD-1 mice [2]; [15]", "result": "110 (30–6300) mg/kg"}, {"measurement": "A50 (morphine anti-nociceptive potency), tail flick", "setting": "CD-1 mice [5]; Vehicle i.t., 24 h, then 1–10 mg/kg morphine s.c., %MPE, 95% CI in parentheses", "result": "3.0 (2.5–3.7) mg/kg"}, {"measurement": "A50 (morphine anti-nociceptive potency), tail flick", "setting": "CD-1 mice [5]; Vehicle i.v. (control of KUNB106 experiment, Fig. 9E), 24 h, then 1–5.6 mg/kg morphine s.c.", "result": "5.6 (4.4–∞) mg/kg"}, {"measurement": "A50 (morphine anti-nociceptive potency), tail flick", "setting": "CD-1 mice [5]; Vehicle i.v. (control of KUNG65 experiment, Fig. 8F), 24 h, then 1–5.6 mg/kg morphine s.c.", "result": "3.6 (2.9–4.6) mg/kg"}, {"measurement": "constipation compared to saline-injected controls", "setting": "CD-1 mice [12]; 1 mg/kg morphine s.c.", "result": "~ 40%"}, {"measurement": "constipation compared to saline-injected controls (plateau)", "setting": "CD-1 mice [12]; 3.2–10 mg/kg morphine s.c.", "result": "~ 70%"}, {"measurement": "A50 (morphine constipation potency)", "setting": "CD-1 mice [12]; Vehicle i.t., 24 h, then morphine s.c., 6-h AUC, %MPE, 95% CI in parentheses", "result": "0.67 (0.32–0.94) mg/kg"}, {"measurement": "A50 (morphine anti-nociceptive potency), paw incision", "setting": "CD-1 mice [9]; Vehicle i.t., 24 h, then morphine s.c., %MPE, 95% CI in parentheses", "result": "2.4 (2.0–2.8) mg/kg"}, {"measurement": "A50 (morphine anti-nociceptive potency), paw incision", "setting": "CD-1 mice [9]; Vehicle i.v. (control of KUNB106 experiment, Fig. S7B), then 1–3.2 mg/kg morphine s.c.", "result": "2.5 (2.0–∞) mg/kg"}, {"measurement": "A50 (morphine anti-nociceptive potency), paw incision", "setting": "CD-1 mice [9]; Vehicle i.v. (control of KUNG65 experiment, Fig. S6B), then 1–3.2 mg/kg morphine s.c.", "result": "2.0 (1.4–3.0) mg/kg"}, {"measurement": "A50 (morphine reward potency, CPP % Difference Score)", "setting": "CD-1 mice [13]", "result": "5.1 (2.7–7.7) mg/kg"}, {"measurement": "A50 (morphine anti-nociceptive potency), HIV neuropathy", "setting": "CD-1 mice [14]", "result": "4.2 (3.7–4.8) mg/kg"}]}
{"smiles": "Cc1ccc(Sc2cc(C(=O)N3Cc4ccccc4C3)ccc2O)cc1C", "note": "[KUNA115]", "values": [{"measurement": "effect on morphine tail flick anti-nociception, isoform-selective inhibitor i.t.", "setting": "CD-1 mice [5]; 0.01 nmol i.t., 24 h, then 3.2 mg/kg morphine s.c.", "result": "significant anti-nociceptive elevation"}, {"measurement": "effect of systemic Hsp90α inhibitor on morphine anti-nociception, paw incision", "setting": "CD-1 mice [9]; 1 mg/kg i.v., 24 h, then 3.2 mg/kg morphine s.c.", "result": "completely blocked anti-nociception"}]}
